Earlier results, collected in PMC7992119 (Structure (London, England : 1993), 2019).
Where no end group is shown, it is not given here. The star is where a group is joined. Octanoyl = CCCCCCCC(=O)*

Key:
[1] = test system: GHSR; conditions: ref Bednarek et al., 2000
[2] = test system: ET-B; conditions: mutation of known crystal contacts; ref Shihoya et al., 2016
[3] = test system: GHSR

In the case of des-acyl ghrelin, the “activity at GHSR of des-acyl versus lipidated form” value [1] is given as “only the lipidated form is active at GHSR”.
In the case of endothelin-1, the “maximal decrease of binding” value [2] is given as at most 10 fold.
For “ghrelin: 28-amino acid peptide with n-octanoylation at its Ser^3 residue (GSS(Octanoyl)FLSPEHQRVQQRKESKKPPAKLQPR; UniProt Q9UBU3 24-51, looked up)”, the “affinity of the C terminus for the receptor” value ([3]; C terminus of ghrelin (beyond residue 17), ref Bednarek et al., 2000) is given as “the C terminus has no affinity for the receptor and does not enhance ligand binding over truncated variants” and the “affinity to GHSR versus the membrane” value ([3]; qualitative statement, no reference given) is given as “much higher than to the membrane”.
